Experimental data as given in patent US20250186463A1, “ABIRATERONE DECANOATE PRODRUGS AND USE IN THERAPY” (PROPELLA THERAPEUTICS, INC., priority 2022, published 2025).

What was measured:
serum corticosterone = test: Phase 1/2a study: serum corticosterone; type: in vivo, human
Procedure: (§1) This is a Phase 1/2a, Open-label, Multicenter Study of Intramuscular Abiraterone Decanoate Depot in Patients with Advanced Prostate Cancer.
(§2) Formulations and dosing regimen: The formulation used in the study (abiraterone decanoate for intramuscular [i.m.] injection) is a solution formulation of abiraterone decanoate at a concentration of 180 mg/mL and will be provided as a 10 mL vial containing 990 mg of abiraterone decanoate in 5.5 mL of solution. See further details of the formulations in Example 2 (for each milliliter: Abiraterone Decanoate, about 180 mg/mL; Benzyl Alcohol, about 100 mg/mL; Benzyl Benzoate, about 200 mg/mL; and Corn oil, q.s. to 1 mL). Abiraterone Decanoate will be administered as an i.m. injection every 84 days (±3 days). Dose escalation will proceed with a modified Fibonacci sequence. Based on emerging data, intermediate doses may be evaluated.
(§3) Study Design: This is a Phase 1/2a, Open-label, Multicenter Study of Intramuscular Abiraterone Decanoate Depot in Patients with Advanced Prostate Cancer. In Phase 1, all patients will receive i.m. Abiraterone Decanoate depot in 84-day treatment cycles combined with daily oral prednisone or dexamethasone. In Phase 2a, patients will be randomized 1:1 and treated with i.m. Abiraterone Decanoate depot in 84-day treatment cycles in combination with dexamethasone (Arm A) or abiraterone acetate daily+prednisone (Arm B). In both Phases, patients will undergo scheduled periodic assessments of serum testosterone levels. Participants may continue treatment until they meet any discontinuation criteria outlined in the protocol.
(§4) Pharmacodynamic Analysis: Determination of Prostate Specific Antigen (PSA), serum testosterone, dehydroepiandrosterone (DHEA), dehydroepiandrosterone sulfate (DHEA-S), androstenedione, dihydrotestosterone (DHT), progesterone, cortisol, adrenocorticotropic hormone (ACTH), corticosterone, 11-dexoycorticosterone (11-DOC) and 11-deoxycortisol.
(§5) Based on the available data, the recommended dose for Phase 2 is about 1260 mg abiraterone decanoate once every three months (12 weeks). All cohorts 1 and 2 in this clinical study were treated with prednisone, 5 mg orally once or twice daily; and all cohorts 3-5 were treated with dexamethasone, 0.5 mg orally once daily. The results shown herein for these cohorts should be understood accordingly.
See also Table 3B below. […] See also FIG. 11B for the absolute serum progesterone levels for cohorts 4 and 5, with the LLOQ being 1.59 nM. It should be noted that the maximum serum progesterone level observed for cohorts 1-3 is 2.5 nM. FIGS. 3F and 3G show the serum 11-deoxycorticosterone and corticosterone response in cohorts 3, 4, and 5, the trend is similar to that observed for progesterone levels above. See a summary shown in the Table 3C below for the first cycle.

[1] = test system: Prostate Specific Antigen (PSA); test: Phase 1/2a study: PSA response; type: in vivo, human; settings: for Undetectable PSA: defined as PSA < 0.2 ng/mL
Procedure: as §1, §2, §3, §4, §5
PSA Levels: the median baseline PSA level was 3.01 ng/mL. […] The table below further summarizes the reduction of PSA observed without elevated progesterone level.

[2] = Phase 1/2a study: safety and tolerability; type: in vivo, human
Description: At each dose cohort, 3 to 4 patients will be enrolled. If none of the patients experience a dose-limiting toxicity (DLT) in the first 28 days (the DLT period) the dose will be escalated in the next cohort. A DLT will be defined as any of the following using on the Common Terminology Criteria for Adverse Events (CTCAE) criteria v5.0 regardless of attribution to the study drug unless it is clearly due to the patient's underlying disease or extraneous causes:
Safety Analysis: Adverse events will be summarized by severity, seriousness, and relationship to study treatments. Laboratory data, vital signs, PFTs and ECGs will be compared to baseline values.

[3] = test system: serum DHEA-S, DHEA, androstenedione; test: Phase 1/2a study: serum DHEA-S, DHEA, androstenedione; type: in vivo, human
Description: as §4

lymph node lesions = test: Follow-up analysis and post-study PET/CT scan (Patient 1); type: in vivo, human; settings: Patient 1, 180 mg, CSPC; enzalutamide started after study
Procedure: Patient 1. This patient is in cohort 1, which was administered 180 mg of abiraterone decanoate. This patient is […], with CSPC, with a Gleason score ≤6, who entered the study with left common iliac and femoral lymph node involvement and measurable PSA. The patient received degarelix (March thru May 2021) and leuprolide (starting June 2021). Abiraterone decanoate was injected to the patient on Jul. […] On Sep. 24, 2021, this patient started enzalutamide (Xtandi) treatment.

[4] = Abiraterone plasma exposure in monkeys, vehicle comparison; type: in vivo; settings: corn oil 70%, benzyl benzoate 20%, same concentration and dose
Description: In some embodiments, the abiraterone prodrug formulation can comprise a combination of benzyl alcohol and benzyl benzoate as cosolvents. In some embodiments, the benzyl alcohol can be present in an amount of about 0-20% (e.g., 0-15% or 0-10%, such as about 10%) of the solvent, and benzyl benzoate can be present in an amount of about 0-50% (e.g., 0-35% or 0-30%, such as about 20%) of the solvent, wherein the balance of the solvent can be any one or more of the pharmaceutically acceptable oil described herein, such as corn oil, castor oil, sesame oil, peanut oil, cottonseed oil, and/or Miglyol 812, etc.

SMILES: CCCCCCCCCC(=O)O[C@H]1CC[C@@]2(C)C(=CC[C@@H]3[C@@H]2CC[C@]2(C)C(c4cccnc4)=CC[C@@H]32)C1 [abiraterone decanoate]
- Corticosterone Changes during cycle 1, Percent (%) (serum corticosterone; 720 mg (N = 4), Day 14): 48%
- Corticosterone Changes during cycle 1, Percent (%) (serum corticosterone; 720 mg (N = 4), Day 28): 27%
- Corticosterone Changes during cycle 1, Percent (%) (serum corticosterone; 720 mg (N = 4), Day 56): 9%
- Corticosterone Changes during cycle 1, Percent (%) (serum corticosterone; 720 mg (N = 4), Day 84): −33%
- Corticosterone Changes during cycle 1, Percent (%) (serum corticosterone; 1,260 mg (N = 6), Day 14): 184%
- Corticosterone Changes during cycle 1, Percent (%) (serum corticosterone; 1,260 mg (N = 6), Day 28): 490%
- Corticosterone Changes during cycle 1, Percent (%) (serum corticosterone; 1,260 mg (N = 6), Day 56): 19%
- Corticosterone Changes during cycle 1, Percent (%) (serum corticosterone; 1,260 mg (N = 6), Day 84): 32%
- Corticosterone Changes during cycle 1, Percent (%) (serum corticosterone; 1,800 mg (N = 8), Day 14): 455%
- Corticosterone Changes during cycle 1, Percent (%) (serum corticosterone; 1,800 mg (N = 8), Day 28): 259%
- Corticosterone Changes during cycle 1, Percent (%) (serum corticosterone; 1,800 mg (N = 8), Day 56): 54%
- Corticosterone Changes during cycle 1, Percent (%) (serum corticosterone; 1,800 mg (N = 8), Day 84): 109%
- percentages of patients achieving PSA50 and 90 versus those reported for abiraterone acetate (AA) and enzalutamide (Enza) ([1]; Chemo-naïve CRPC, FIGS. 9A and 9B): much higher
- PSA at follow-up ([1]; Patient 1, 180 mg, CSPC, enzalutamide started after study): below LLOQ
- patients with PSA50 ([1]; cohorts 3, 4, and 5): 15 out of 16
- patients with PSA90 ([1]; cohorts 3, 4, and 5): 8 out of 16
- Best PSA Response ([1]; patient 02-1403, Cohort 4, 1260 mg, mCRPC, Visit C4D28): −98%
- Undetectable PSA ([1]; patient 02-1403, Cohort 4, 1260 mg, mCRPC): No
- Best PSA Response ([1]; patient 02-1405, Cohort 4, 1260 mg, mCRPC, Visit C1D56): −94%
- Undetectable PSA ([1]; patient 02-1405, Cohort 4, 1260 mg, mCRPC): No
- Best PSA Response ([1]; patient 02-1504, Cohort 5, 1800 mg, mCRPC, Visit C1D28): −92.4
- Undetectable PSA ([1]; patient 02-1504, Cohort 5, 1800 mg, mCRPC): No
- Best PSA Response ([1]; patient 02-1505, Cohort 5, 1800 mg, mCSPC, Visit C1D84): −98%
- Undetectable PSA ([1]; patient 02-1505, Cohort 5, 1800 mg, mCSPC): No
- Best PSA Response ([1]; patient 04-1406, Cohort 4, 1260 mg, mCSPC, Visit C1D56): −82%
- Undetectable PSA ([1]; patient 04-1406, Cohort 4, 1260 mg, mCSPC): No
- Best PSA Response ([1]; patient 04-1503, Cohort 5, 1800 mg, mCSPC, Visit C1D84): −67%
- Undetectable PSA ([1]; patient 04-1503, Cohort 5, 1800 mg, mCSPC): Yes
- Best PSA Response ([1]; patient 04-1506, Cohort 5, 1800 mg, mCRPC, Visit C1D28): −54%
- Undetectable PSA ([1]; patient 04-1506, Cohort 5, 1800 mg, mCRPC): No
- Best PSA Response ([1]; patient 06-1401, Cohort 4, 1260 mg, mCRPC, Visit C3D84): −99.97%
- Undetectable PSA ([1]; patient 06-1401, Cohort 4, 1260 mg, mCRPC): Yes
- Best PSA Response ([1]; patient 06-1402, Cohort 4, 1260 mg, mCRPC, Visit C4D28): −93%
- Undetectable PSA ([1]; patient 06-1402, Cohort 4, 1260 mg, mCRPC): No
- Best PSA Response ([1]; patient 06-1404, Cohort 4, 1260 mg, mCSPC, Visit C2D84): −67%
- Undetectable PSA ([1]; patient 06-1404, Cohort 4, 1260 mg, mCSPC): Yes
- Best PSA Response ([1]; patient 06-1501, Cohort 5, 1800 mg, mCRPC, Visit C1D84): 48%
- Undetectable PSA ([1]; patient 06-1501, Cohort 5, 1800 mg, mCRPC): No
- Best PSA Response ([1]; patient 06-1502, Cohort 5, 1800 mg, mCSPC, Visit C2D84): −99.6%^
- Undetectable PSA ([1]; patient 06-1502, Cohort 5, 1800 mg, mCSPC): Yes
- increases in upstream steroids from CYP17A1 hydroxylase, compared with Zytiga ([2]; Phase 1 study): far less than observed with Zytiga
- safety issues relating to mineralocorticoid excess ([2]; Phase 1 study, to date): no safety issues relating to mineralocorticoid excess
- safety profile ([2]; all cohorts 1-5): excellent
- tolerability in human subjects ([2]; in vivo): generally well tolerated
- serum DHEA-S level vs baseline ([3]; cohorts 1-5, FIG. 3B): significantly reduced
- serum DHEA level vs baseline ([3]; cohorts 1-5, FIG. 3C): significantly reduced
- serum androstenedione level vs baseline ([3]; cohorts 1-5, FIG. 3D): significantly reduced
- lymph node lesions on post-study PET/CT scan (lymph node lesions): complete resolution of prior lymph node lesions
- abiraterone plasma exposure versus corn oil 90% / benzyl alcohol 10% formulation [4]: much higher abiraterone plasma exposure
